Data published in US20250222028A1, “ENGINEERED IMMUNE CELL PLATFORM” (Cancer Research Technology Limited, priority 2022, published 2025).

Key:
EL-4 tumour cells = assay: LDH cytotoxicity assay, OT-I CD8+ CTLs co-cultured with Ova peptide-pulsed EL-4 target cells; type: cell-based, murine; details: 10 μM, over a range of effector-to-target ratios, vs carrier control
Experimental: FIG. 1. L-type Cav channel agonists increase Gli1 expression and enhance specific cell killing by murine CD8+ CTLs. CD8^+ T cells were isolated from the spleen and inguinal lymph nodes of Rag2^−/− OT-I mice, and CTLs were generated. (A) Cells were restimulated on day 9/10 for 3 hours using plate-bound anti-CD3ε in the presence of indicated concentrations of FPL 64176 or carrier control. RNA was extracted and Gli1 expression was assessed by qRT-PCR. Data is n=3 independent experiments. us=unstimulated cells. (B) An LDH cytotoxicity assay was performed using OT-I CTLs. On day 7, CTLs were co-cultured with Ova peptide-pulsed EL-4 cells in the presence of 10 μM FPL 64176 (squares) or carrier control (circles). Data is n=4 independent experiments. (C) Updated experiment of (A). Data is now n=4 independent experiments. Data is normalised to Tbp as a reference gene. 0h=unstimulated cells. (D) Same data as (B) represented differently. […] Error bars indicate SD. p values were calculated using an unpaired two-tailed Student's t test (C) or a two-way ANOVA (B/D). * indicates p<0.05, ** indicates p<0.01, **** indicates p<0.0001.
FIG. 11. […] (A) Quantitative analysis of live cell numbers. […] (E) Quantitative analysis of live cell numbers. […]
To ensure that the use of L-type Cav agonist is not adversely affecting immune cells, general cell functions were assessed. […]

K562 target cells = assay: Flow-cytometry based killing assay, human Vγ9Vδ2 gammadelta T cells with K562 target cells; type: cell-based; details: 10 μM, killing assessed after 24 hours, vs EtOH carrier control
Experimental: FIG. 12. GLI1 is important for tumour cell killing of human Vγ9Vδ2 gammadelta T cells and treatment with L-type voltage gated Ca2+ channel agonist FPL 64176 increases killing capacity. PBMCs were isolated from Buffy Coats of healthy donors using SepMate PBMC Isolation Tubes. Vγ9Vδ2 expansion was induced by plating PBMCs at 1×10^6 concentration with 1 μM of Zoledronate in the presence of 100 IU/mL IL-2 and 120 IU/mL IL-15. Cells were split every 2-3 days from day 6 until day 20. Killing assays were conducted between day 16-20. (A) Vγ9Vδ2 T lymphocytes were incubated with Gli1/2 inhibitor GANT61 or EToH (carrier control) overnight and subsequently co-cultured with K562 target cells for 24 h at the indicated effector to target ratios and subjected to a flow-cytometry based killing assay. n=1 individual donor. (B) Vγ9Vδ2 cells were pre-incubated with 10 μM FPL 64176 or EToH (carrier control) before being co-cultured with K562 target cells at indicated effector to target ratios and subjected to a flowcytometric cytotoxicity assay in the presence of 10 μM FPL 64176 or EToH (carrier control). Killing was assessed after 24 hours. Tumour cell killing normalised to carrier treated cells at a 10:1 effector:target ratio. n=4 individual healthy donors from 2 independent experiments. […]

Structure (SMILES): COC(=O)c1c(C)[nH]c(C)c1C(=O)c1ccccc1Cc1ccccc1 [FPL 64176]
- improvement of specific cell killing of EL-4 tumour cells (EL-4 tumour cells): at least 100%
- killing by gammadelta T cells (K562 target cells): increased killing
